Assay results taken from ChEMBL document CHEMBL6074647, “Design, synthesis and antitumor activity of novel 4-oxobutanamide derivatives” (Bioorg Med Chem Lett, 2024).

Key:
MDA-MB-231 = experiment: Antiproliferative activity against human MDA-MB-231 cells assessed as reduction in cell viability by MTT assay; type: functional, cell-based
HeLa [1] = experiment: Antiproliferative activity against human HeLa cells assessed as reduction in cell viability by MTT assay; type: functional, cell-based
A498 [2] = experiment: Antiproliferative activity against human A498 cells assessed as reduction in cell viability by MTT assay; type: functional, cell-based
A498 [3] = experiment: Inhibition of colony formation in human A498 cells assessed as proliferative capacity at 1 uM; type: functional; set-up: scale not given: the % may be the effect or the level left
A498 [4] = experiment: Inhibition of colony formation in human A498 cells assessed as proliferative capacity at 2 uM; type: functional; set-up: scale not given: the % may be the effect or the level left
A498 [5] = experiment: Inhibition of colony formation in human A498 cells assessed as proliferative capacity at 4 uM; type: functional; set-up: scale not given: the % may be the effect or the level left
A498 [6] = experiment: Inhibition of cell invasion in human A498 cells assessed as decrease in cell density invading the bottom surface of the membrane by Transwell assay; type: functional, cell-based; conditions: dose 1-4 µM
A498 [7] = experiment: Inhibition of cell invasion in human A498 cells assessed as decrease in cell density invading the bottom surface of the membrane at 2 uM by Transwell assay; type: functional, cell-based
A498 [8] = experiment: Inhibition of cell adhesion in human A498 cells; type: functional, cell-based; conditions: dose 1-4 µM
A498 [9] = experiment: Inhibition of cell adhesion in human A498 cells at 4 uM; type: functional, cell-based
A498 [10] = experiment: Anti-angiogenesis activity against human A498 cells xenografted in chicken embryo chorioallantoic membrane assessed as CAM blood vessel growth at 1 uM; type: functional
A498 [11] = experiment: Anti-angiogenesis activity against human A498 cells xenografted in chicken embryo chorioallantoic membrane assessed as CAM blood vessel growth at 2 uM; type: functional
A498 [12] = experiment: Anti-angiogenesis activity against human A498 cells xenografted in chicken embryo chorioallantoic membrane assessed as CAM blood vessel growth at 4 uM; type: functional
A498 [13] = experiment: Antitumor activity against human A498 cells xenografted in chicken embryo chorioallantoic membrane assessed as decrease in tumor weight; type: functional, cell-based; conditions: dose 1-4 µM
A498 [14] = experiment: Antitumor activity against human A498 cells xenografted in chicken embryo chorioallantoic membrane assessed as decrease in tumor weight at 4 uM; type: functional, cell-based
PANC-1 = experiment: Antitumor activity against human PANC-1 cells; type: functional, cell-based
A2780 = experiment: Antitumor activity against human A2780 cells; type: functional, cell-based
SMMC-7721 = experiment: Antitumor activity against human […] cells; type: functional, cell-based
NCI-H460 = experiment: Antiproliferative activity against human NCI-H460 cells assessed as inhibition of cell growth; type: functional, cell-based
HeLa [15] = experiment: Antiproliferative activity against human HeLa cells assessed as inhibition of cell growth; type: functional, cell-based

SMILES	IC50 (MDA-MB-231)	IC50 (HeLa [1])	IC50 (A498 [2])	further results
COc1ccc(CN(C(=O)CCC(=O)Nc2ccc(OC)cc2)c2cc(OC)c(OC)c(OC)c2)cc1	31.5 µM	8.24 µM	1.94 µM	Activity (A498 [3]): 66.94%; Activity (A498 [4]): 26.03%; Activity (A498 [5]): 11.16%; inhibition (A498 [6]): Dose-dependent-effect; inhibition (A498 [7]): Active; Better Activity Compared To 4 Um Positive Control, Paclitaxel And Colchicine; inhibition (A498 [8]): Dose-dependent-effect; inhibition (A498 [9]): Active; Better Activity Compared To Positive Control, Paclitaxel And Colchicine; Activity (A498 [10]): 82.4%; Activity (A498 [11]): 66.22%; Activity (A498 [12]): 42.04%; Activity (A498 [13]): Dose-dependent-effect; Activity (A498 [14]): Active; Better Activity Compared To Positive Control, Paclitaxel And Colchicine
COc1ccc(CN(C(=O)CCC(=O)Nc2cccc(OC)c2)c2cc(OC)c(OC)c(OC)c2)cc1	21.4 µM	12 µM	8.27 µM	–
COc1ccc(CCc2cc(OC)c(OC)c(OC)c2)cc1O	–	–	–	IC50 (PANC-1): 0.45 µM; IC50 (A2780): 0.42 µM; IC50 (SMMC-7721): 0.29 µM
COc1cc2c(c(OC)c1OC)-c1ccc(OC)c(=O)cc1[C@@H](NC(C)=O)CC2 [COLCHICINE]	> 100 µM	32.7 µM	7.17 µM	–
COc1ccc(N(C)c2nc(C)nc3ccccc23)cc1NC(=O)CCC(=O)NO	–	–	–	IC50 (NCI-H460): 1.05 µM; IC50 (HeLa [15]): 2.41 µM
COc1ccc(CN(C(=O)CCC(=O)Nc2ccc(C(F)(F)F)cc2)c2cc(OC)c(OC)c(OC)c2)cc1	> 100 µM	4.65 µM	> 100 µM	–
COc1ccc(CN(C(=O)C(=O)Nc2ccc(Cl)cc2)c2cc(OC)c(OC)c(OC)c2)cc1	40.7 µM	–	–	–
COc1ccc(CN(C(=O)CCC(=O)Nc2cc(OC)c(OC)c(OC)c2)c2cc(OC)c(OC)c(OC)c2)cc1	> 100 µM	57.5 µM	> 100 µM	–
CC(=O)O[C@H]1C(=O)[C@@]2(C)[C@H]([C@H](OC(=O)c3ccccc3)[C@]3(O)C[C@H](OC(=O)[C@H](O)[C@@H](NC(=O)c4ccccc4)c4ccccc4)C(C)=C1C3(C)C)[C@]1(OC(C)=O)CO[C@@H]1C[C@@H]2O [PACLITAXEL]	31.4 µM	21.3 µM	–	–
COc1ccc(CN(C(=O)C(=O)Nc2ccc(C)cc2)c2cc(OC)c(OC)c(OC)c2)cc1	55.9 µM	–	–	–

Continued, in another order:

IC50 (MDA-MB-231)	IC50 (HeLa [1])	SMILES	IC50 (A498 [2])	further results
23.5 µM	11.8 µM	COc1ccc(CN(C(=O)CCC(=O)Nc2ccc(O)cc2)c2cc(OC)c(OC)c(OC)c2)cc1	3.23 µM	–
24 µM	2.39 µM	COc1ccc(CN(C(=O)CCC(=O)Nc2ccc(F)cc2)c2cc(OC)c(OC)c(OC)c2)cc1	4.06 µM	–
56.2 µM	39.8 µM	COc1ccc(CN(C(=O)CCC(=O)Nc2cccc(F)c2)c2cc(OC)c(OC)c(OC)c2)cc1	11.9 µM	–
74.4 µM	48.3 µM	COc1ccc(CN(C(=O)CCC(=O)Nc2ccccc2OC)c2cc(OC)c(OC)c(OC)c2)cc1	5.81 µM	–
22.5 µM	13.8 µM	COc1ccc(CN(C(=O)CCC(=O)Nc2ccc(Cl)cc2)c2cc(OC)c(OC)c(OC)c2)cc1	11.5 µM	–
16.6 µM	19.2 µM	COc1ccc(CN(C(=O)CCC(=O)Nc2cccc(C)c2)c2cc(OC)c(OC)c(OC)c2)cc1	8.85 µM	–
48.3 µM	20.4 µM	COc1ccc(CN(C(=O)CCC(=O)Nc2cccc(Cl)c2)c2cc(OC)c(OC)c(OC)c2)cc1	10.7 µM	–
73 µM	41.9 µM	COc1ccc(CN(C(=O)CCC(=O)Nc2ccccc2Cl)c2cc(OC)c(OC)c(OC)c2)cc1	5.58 µM	–
8.08 µM	> 100 µM	COc1ccc(CN(C(=O)CCC(=O)Nc2ccc(C)cc2)c2cc(OC)c(OC)c(OC)c2)cc1	5.34 µM	–
16.1 µM	16 µM	COc1ccc(CN(C(=O)CCC(=O)Nc2ccccc2)c2cc(OC)c(OC)c(OC)c2)cc1	2.11 µM	–
58.6 µM	20.8 µM	COc1ccc(CN(C(=O)CCC(=O)Nc2ccc(Br)cc2)c2cc(OC)c(OC)c(OC)c2)cc1	5.4 µM	–
